Drawing on US10112899B2 (ViiV HEALTHCARE UK LIMITED, priority 2014, dated 2018), this text covers IC50 for 29 compounds.

pIC50: −log10 of the molar value.

In one experiment the test system is HIV in the HTLV-1 transformed cell line MT-4. Kind of experiment: organism not typed. It is filed as cell-based. The settings on record: MT4, 96 h, MT-4 cells; luciferase/cell titer glo readout after 96 hours; 10 point dose response. On the technique in general: In ATP-based viability assays light output follows the ATP content of the culture.
`COCCN(C)C(=O)N1Cc2c(C)c(-c3ccc(C)cc3)c([C@H](OC(C)(C)C)C(=O)O)c(C)c2C1` [Example 62, (2S)-2-(tert-butoxy)-2-{2-[(2-methoxyethyl)(methyl)carbamoyl]-4,7-dimethyl-6-(4-methylphenyl)-2,3-dihydro-1H-isoindol-5-yl}acetic acid]: the pIC50 is 7.36.

Consider `Cc1ccc(-c2c(C)c3c(c(C)c2[C@H](OC(C)(C)C)C(=O)O)CN(C(=O)c2ccc(F)c(F)c2)C3)cc1` [Example 261, (S)-2-(tert-butoxy)-2-(2-(3,4-difluorobenzol)-4,7-dimethyl-6-(p-tolyl)isoindolin-5-yl)acetic acid], for which the pIC50 is 8.40. In turn, `Cc1ccc(-c2c(C)c3c(c(C)c2[C@H](OC(C)(C)C)C(=O)O)CN(C(=O)N2CC[C@H](O)C2)C3)cc1` [Example 77, (2S)-2-(tert-butoxy)-2-{2-[(3S)-3-hydroxypyrrolidine-1-carbonyl]-4,7-dimethyl-6-(4-methylphenyl)-2,3-dihydro-1H-isoindol-5-yl}acetic acid] showed a pIC50 of 6.80.

`COc1cccc(CN2Cc3c(C)c(-c4ccc(C)cc4)c([C@H](OC(C)(C)C)C(=O)O)c(C)c3C2)c1` [Example 24, (S)-2-(tert-butoxy)-2-(2-(3-methoxybenzyl)-4,7-dimethyl-6-(p-tolyl)isoindolin-5-yl)acetic acid] gave a pIC50 of 7.92.

`Cc1c(-c2c(C)c3c(c(C)c2[C@H](OC(C)(C)C)C(=O)O)CN(C(=O)N2CCCC2)C3)cc(F)c2c1CCCO2` (atropisomer, axis not shown; (M)) [Example 208, (S)-2-(tert-butoxy)-2-((M)-6-(8-fluoro-5-methylchroman-6-yl)-4,7-dimethyl-2-(pyrrolidine-1-carbonyl)isoindolin-5-yl)acetic acid] gave a pIC50 of 8.40. `Cc1c(-c2c(C)c3c(c(C)c2[C@H](OC(C)(C)C)C(=O)O)CN(C(=O)N2CCC(C)(C)CC2)C3)cc(F)c2c1CCCO2` (atropisomer, axis not shown; (M)) [Example 211, (S)-2-(tert-butoxy)-2-((M)-2-(4,4-dimethylpiperidine-1-carbonyl)-6-(8-fluoro-5-methylchroman-6-yl)-4,7-dimethylisoindolin-5-yl)acetic acid] had a negative logarithm of the IC50 (pIC50) of 8.30. Same read-out and setting: as for `Cc1ccc(-c2c(C)c3c(c(C)c2[C@H](OC(C)(C)C)C(=O)O)CN(C(=O)NC(C)(C)c2ccccc2)C3)cc1` [Example 97, (S)-2-(tert-butoxy)-2-(4,7-dimethyl-2-((2-phenylpropan-2-yl)carbamoyl)-6-(p-tolyl)isoindolin-5-yl)acetic acid], the figure is 6.84; as for `Cc1ccc(-c2c(C)c3c(c(C)c2[C@H](OC(C)(C)C)C(=O)O)CN(C(=O)N2CCCC[C@@H]2C)C3)cc1` [Example 293, (S)-2-(tert-butoxy)-2-(4,7-dimethyl-2-((S)-2-methylpiperidine-1-carbonyl)-6-(p-tolyl)isoindolin-5-yl)acetic acid], 8.40; as for `Cc1ccc(-c2c(C)c3c(c(C)c2[C@H](OC(C)(C)C)C(=O)O)CN(C(=S)c2cccc(F)c2)C3)cc1` [Example 288, (S)-2-(tert-butoxy)-2-(2-(3-fluorophenylcarbonothioyl)-4,7-dimethyl-6-(p-tolyl)isoindolin-5-yl)acetic acid], 7.82. On the same count and under the same terms, then `Cc1ccc(-c2c(C)c3c(c(C)c2[C@H](OC(C)(C)C)C(=O)O)CN(C(=O)c2ccc(Cl)c(F)c2)C3)cc1` [Example 264, (S)-2-(tert-butoxy)-2-(2-(4-chloro-3-fluorobenzoyl)-4,7-dimethyl-6-(p-tolyl)isoindolin-5-yl)acetic acid], with 8.05; and `Cc1ccc(-c2c(C)c3c(c(C)c2[C@H](OC(C)(C)C)C(=O)O)CN(Cc2ccccc2F)C3)cc1` [Example 21, (S)-2-(tert-butoxy)-2-(2-(2-fluorobenzyl)-4,7-dimethyl-6-(p-tolyl)isoindolin-5-yl)acetic acid], with 7.40; and `Cc1ccc(-c2c(C)c3c(c(C)c2[C@H](OC(C)(C)C)C(=O)O)CN(C(=O)N2CCOCC2)C3)cc1` [Example 57, (2S)-2-(tert-butoxy)-2-[4,7-dimethyl-6-(4-methylphenyl)-2-(morpholine-4-carbonyl)-2,3-dihydro-1H-isoindol-5-yl]acetic acid], with 7.36.

The compound `Cc1c(-c2c(C)c3c(c(C)c2[C@H](OC(C)(C)C)C(=O)O)CN(C(=O)N2CCC(F)(F)C2)C3)cc(F)c2c1NCCO2` [Example 315, (2S)-2-(tert-butoxy)-2-(2-(3,3-difluoropyrrolidine-1-carbonyl)-6-(8-fluoro-5-methyl-3,4-dihydro-2H-benzo[b][1,4]oxazin-6-yl)-4,7-dimethylisoindolin-5-yl) acetic acid] gave a negative logarithm of the IC50 (pIC50) of 7.82.

`Cc1ccc(-c2c(C)c3c(c(C)c2[C@H](OC(C)(C)C)C(=O)O)CN(C(=O)c2cccc4c2OCC4)C3)cc1` [Example 164, (S)-2-(tert-butoxy)-2-(2-(2,3-dihydrobenzofuran-7-carbonyl)-4,7-dimethyl-6-(p-tolyl)isoindolin-5-yl)acetic acid] gave a pIC50 of 8.40. Same read-out and setting: then `Cc1ccc(-c2c(C)c3c(c(C)c2[C@H](OC(C)(C)C)C(=O)O)CN(C(=O)C(=O)N2CCCCC2)C3)cc1` [Example 129], with 7.85. `Cc1ccc(-c2c(C)c3c(c(C)c2[C@H](OC(C)(C)C)C(=O)O)CN(C(=O)N2CC4CCCC4C2)C3)cc1` (stereo partly drawn) [Example 82, (2S)-2-(tert-butoxy)-2-(4,7-dimethyl-2-(octahydrocyclopenta[c]pyrrole-2-carbonyl)-6-(p-tolyl)isoindolin-5-yl)acetic acid] gave a pIC50 of 7.85. Compound `Cc1ccc(C(=O)N2Cc3c(C)c(-c4cc(F)c5c(c4C)CCCO5)c([C@H](OC(C)(C)C)C(=O)O)c(C)c3C2)c(C)c1` (atropisomer, axis not shown; (M)) [Example 189, (S)-2-(tert-butoxy)-2-((M)-2-(2,4-dimethylbenzoyl)-6-(8-fluoro-5-methylchroman-6-yl)-4,7-dimethylisoindolin-5-yl)acetic acid] gave a pIC50 of 8.40. On the same count and under the same terms, as for `Cc1ccc(-c2c(C)c3c(c(C)c2[C@H](OC(C)(C)C)C(=O)O)CN(C(=O)N2CCC(C)CC2)C3)cc1` [Example 81, (S)-2-(tert-butoxy)-2-(4,7-dimethyl-2-(4-methylpiperidine-1-carbonyl)-6-(p-tolyl)isoindolin-5-yl)acetic acid], the figure is 7.80; as for `Cc1ccc(-c2c(C)c3c(c(C)c2[C@H](OC(C)(C)C)C(=O)O)CN(C(=O)c2cnccc2C)C3)cc1` [Example 260, (S)-2-(tert-butoxy)-2-(4,7-dimethyl-2-(4-methylnicotinoyl)-6-(p-tolyl)isoindolin-5-yl)acetic acid], 7.82; as for `Cc1ccc(-c2c(C)c3c(c(C)c2[C@H](OC(C)(C)C)C(=O)O)CN(C(=O)C2CCCC2)C3)cc1` [Example 112, (S)-2-(tert-butoxy)-2-(2-(cyclopentanecarbonyl)-4,7-dimethyl-6-(p-tolyl)isoindolin-5-yl)acetic acid], 7.54.

In the case of `Cc1ccc(-c2c(C)c3c(c(C)c2[C@H](OC(C)(C)C)C(=O)O)CN(C(=O)N2CC4CCC(C2)O4)C3)cc1` [Example 75, (2S)-2-(tert-butoxy)-2-[4,7-dimethyl-6-(4-methylphenyl)-2-{8-oxa-3-azabicyclo[3.2.1]octane-3-carbonyl}-2,3-dihydro-1H-isoindol-5-yl]acetic acid], the pIC50 was 7.47. In turn, `Cc1ccc(-c2c(C)c3c(c(C)c2[C@H](OC(C)(C)C)C(=O)O)CN(C(=O)OCC(C)(C)C)C3)cc1` [Example 287, (S)-2-(tert-butoxy)-2-(4,7-dimethyl-2-((neopentyloxy)carbonyl)-6-(p-tolyl)isoindolin-5-yl)acetic acid] gave a negative logarithm of the IC50 (pIC50) of 8.30. As for `Cc1ccc(-c2c(C)c3c(c(C)c2C(OC(C)(C)C)C(=O)O)CN(S(=O)(=O)c2cccc4ccccc24)C3)cc1` (centres unmarked) [Example 16, 2-(tert-Butoxy)-2-(4,7-dimethyl-2-(naphthalen-1-ylsulfonyl)-6-(p-tolyl)isoindolin-5-yl)acetic acid], the negative logarithm of the IC50 (pIC50) is 7.21.

On to `Cc1c(-c2c(C)c3c(c(C)c2[C@H](OC(C)(C)C)C(=O)O)CN(C(=O)N2CCC(F)(F)C2)C3)ccc2c1NCCO2` (atropisomer, axis not shown; (M)) [Example 312, (S)-2-(tert-butoxy)-2-((M)-2-(3,3-difluoropyrrolidine-1-carbonyl)-4,7-dimethyl-6-(5-methyl-3,4-dihydro-2H-benzo[b][1,4]oxazin-6-yl)isoindolin-5-yl)acetic acid], for which the pIC50 is 8.22. On to `Cc1ccc(-c2c(C)c3c(c(C)c2[C@H](OC(C)(C)C)C(=O)O)CN(C(=O)c2ccc(C)c(F)c2)C3)cc1` [Example 115, (S)-2-(tert-butoxy)-2-(2-(3-fluoro-4-methylbenzoyl)-4,7-dimethyl-6-(p-tolyl)isoindolin-5-yl)acetic acid], for which the negative-log IC50 (pIC50) was 8.22. The same measure, in the same setting: as for `Cc1ccc(-c2c(C)c3c(c(C)c2[C@H](OC(C)(C)C)C(=O)O)CN(C(=O)N2CCN(C)CC2)C3)cc1` [Example 71, (2S)-2-(tert-butoxy)-2-[4,7-dimethyl-6-(4-methylphenyl)-2-(4-methylpiperazine-1-carbonyl)-2,3-dihydro-1H-isoindol-5-yl]acetic acid], the figure is 6.56; as for `COc1cccc(C(=O)N2Cc3c(C)c(-c4cc(F)c5c(c4C)CCCO5)c([C@H](OC(C)(C)C)C(=O)O)c(C)c3C2)c1C` (atropisomer, axis not shown; (M)) [Example 139, (S)-2-(tert-butoxy)-2-((M)-6-(8-fluoro-5-methylchroman-6-yl)-2-(3-methoxy-2-methylbenzoyl)-4,7-dimethylisoindolin-5-yl)acetic acid], 7.43; as for `Cc1ccc(-c2c(C)c3c(c(C)c2[C@H](OC(C)(C)C)C(=O)O)CN(CC(C)C)C3)cc1` [Example 25, (S)-2-(tert-butoxy)-2-(2-isobutyl-4,7-dimethyl-6-(p-tolyl)isoindolin-5-yl)acetic acid], 6.02.

Still in this experiment, the particulars now being: MT-4 cells; luciferase/cell titer glo readout after 96 hours; 10 point dose response.
Regarding `Cc1ccc(-c2c(C)c3c(c(C)c2[C@H](OC(C)(C)C)C(=O)O)CN(C(=O)N2CCCCC2)C3)c(Cl)c1` [Example 316, (2S)-2-(tert-butoxy)-2-(6-(2-chloro-4-methylphenyl)-4,7-dimethyl-2-(piperidine-1-carbonyl)isoindolin-5-yl)acetic acid], the negative logarithm of the IC50 (pIC50) is 7.39.

As a reminder, the pIC50 is the IC50 on a negative log10 scale, so that one unit is a factor of ten. Low readings indicate a high IC50, high ones a low IC50.
